Reference: paper PMC7532004, “Site-specific effects of neurosteroids on GABAA receptor activation and desensitization” (eLife, 2020)
Read-outs that look alike come from different tables or passages of the source.

How the values were obtained:
[1] = target: T1, α1(N408A/Y411F)β3 GABAAR (UniProt P28472+P62813, N434A/Y437F); assay: [3H]muscimol binding to HEK cell membranes, α1 intrasubunit site mutant; set-up: species or system rat α1, human β3; conditions: for Emax (% of control) of [3H]muscimol binding: 100% means no effect; for Bmax of [3H]muscimol binding isotherm in the presence of the modulator: etomidate 100 μM, 3α5αP 30 μM, KK148 30 μM, control 0.90 ± 0.18
T1 construct: expressed in transfected cells; host or cells: HEK293S GnTI- (ATCC CRL-3022), transient
Procedure: (§1) The human α1 and β3 GABAAR subunits were subcloned into pcDNA3 for molecular manipulations and cRNA synthesis. Using QuikChange Site-Directed Mutagenesis Kit (Agilent Technologies, Santa Clara, CA), a FLAG tag was first added to the α1 subunit then an 8xHis tag was added to generate the following His-FLAG tag tandem ([…]), inserted between the fourth and fifth residues of the mature peptide. The α1 and β3 subunits were then transferred into the pcDNA4/TO and pcDNA5/TO vectors (Thermo Fisher Scientific), respectively, for tetracycline inducible expression. Transient expression was done using the GABAAR subunits rat α1FLAG ([Ueno et al., 1996]) and human β3 obtained from Geoffrey White (Neurogen, Branford, CT), each were subcloned into pcDNA3 for molecular manipulations and cRNA synthesis. Point mutations were generated using the QuikChange Site-Directed Mutagenesis Kit (Agilent) and the coding region was fully sequenced prior to use. The cDNAs were linearized with XbaI (NEB Labs, Ipswich, MA), and the cRNAs were generated using T7 mMessage mMachine (Ambion, Austin, TX).
(§2) [^3H]muscimol-binding assays were performed using a previously described method ([Chen et al., 2019]). […] Assay tubes were incubated for 1 hr on ice in the dark. […] Membranes were collected on Whatman/GF-C glass filter papers using a Brandel cell harvester (Gaithersburg, MD). To perform [^3H]muscimol binding isotherms, 100 μg/ml aliquots of membrane protein were incubated with 0.3 nM–1 μM [^3H]muscimol for 1 hr on ice in the dark. The specific activity for [^3H]muscimol concentrations from 30 nM to 1 μM was reduced to 2 Ci/mmol by dilution with nonradioactive muscimol. The membranes were collected on Whatman/GF-B glass filter papers using a vacuum manifold. […] For [^3H]muscimol-binding experiments examining competitive interactions between neurosteroids, the combined neurosteroids (0.3 μM 3α5αP or 3 μM KK148 ±30 μM KK150) or the same volume of dimethyl sulfoxide (DMSO) were added to the membranes which were then incubated with 3 nM [^3H]muscimol on ice for 1 hr. Time courses of neurosteroid [^3H]muscimol binding enhancement were examined by adding 10 µM of neurosteroids (3α5αP, 3β5αP) to membranes that had been fully equilibrated with 3 nM [^3H]muscimol for 1 hr on ice; binding was then measured as a function of time at 1, 3, 10, 30, 60 min. The membranes were collected on Whatman/GF-B glass filter papers using a vacuum manifold. Radioactivity bound to the filters was measured by liquid scintillation spectrometry using Bio-Safe II (Research Products International, Mount Prospect, IL).

[2] = target: T2, α1(Q242L)β3(Y284F) GABAAR (UniProt P28472+P62813, Q268L/Y309F); assay: Two-electrode voltage clamp in Xenopus laevis oocytes, intersubunit + β3 intrasubunit mutant; format: cell-based; conditions: 3 μM 3α5αP, 1 mM GABA + 40 μM pentobarbital
T2 construct: expressed in transfected cells; host or cells: Xenopus laevis oocytes injected with cRNA
Procedure: (§3) The wild-type and mutant α1β3 GABAAR were expressed in oocytes from the African clawed frog (Xenopus laevis). Frogs were purchased from Xenopus 1 (Dexter, MI), and housed and cared for in a Washington University Animal Care Facility under the supervision of the Washington University Division of Comparative Medicine. Harvesting of oocytes was conducted under the Guide for the Care and Use of Laboratory Animals as adopted and promulgated by the National Institutes of Health. The animal protocol (No. 20180191) was approved by the Animal Studies Committee of Washington University in St. Louis. The oocytes were injected with a total of 12 ng cRNA. The ratio of cRNAs was 5:1 ratio (α1:β3) to minimize the expression of β3 homomeric receptors. Following injection, the oocytes were incubated in ND96 (96 mM NaCl, 2 mM KCl, 1.8 mM CaCl2, 1 mM MgCl2, 5 mM HEPES; pH 7.4) with supplements (2.5 mM Na pyruvate, 100 U/ml penicillin, 100 μg/ml streptomycin and 50 μg/ml gentamycin) at 16°C for 2 days prior to conducting electrophysiological recordings. The electrophysiological recordings were conducted at room temperature using standard two-electrode voltage clamp. The oocytes were clamped at −60 mV. The chamber (RC-1Z, Warner Instruments, Hamden, CT) was perfused with ND96 at 5–8 ml/min. […] Current traces were analyzed with Clampfit (Molecular Devices). […]

[3] = target: α1(V256S)β3 GABAAR (UniProt P28472+P62813, V283S); assay: [3H]muscimol binding to HEK cell membranes, desensitization-eliminating mutant; set-up: expressed in transfected cells; host or cells: HEK293S GnTI- (ATCC CRL-3022), transient; species or system rat α1, human β3; conditions: 10 μM neurosteroid; 3 nM [3H]muscimol
Procedure: as §1, with “Point mutations were generated using the QuikChange Site-Directed Mutagenesis Kit (Agilent) and the coding region was fully sequenced prior to use. The cDNAs were linearized with XbaI (NEB Labs, Ipswich, MA), and the cRNAs were generated using T7 mMessage mMachine (Ambion, Austin, TX).” left out
[^3H]muscimol-binding assays were performed using a previously described method ([Chen et al., 2019]). […] Time courses of neurosteroid [^3H]muscimol binding enhancement were examined by adding 10 µM of neurosteroids (3α5αP, 3β5αP) to membranes that had been fully equilibrated with 3 nM [^3H]muscimol for 1 hr on ice; binding was then measured as a function of time at 1, 3, 10, 30, 60 min. […] Radioactivity bound to the filters was measured by liquid scintillation spectrometry using Bio-Safe II (Research Products International, Mount Prospect, IL).

[4] = target: α1(Q242L)β3 GABAAR (UniProt P28472+P62813, Q268L); assay: Two-electrode voltage clamp in Xenopus laevis oocytes, Q242L mutant; format: cell-based; set-up: expressed in transfected cells; host or cells: Xenopus laevis oocytes injected with cRNA
Procedure: as §3

[5] = target: α1(Q242L/N408A/Y411F)β3 GABAAR (UniProt P28472+P62813, N434A/Q268L/Y437F); assay: Two-electrode voltage clamp in Xenopus laevis oocytes, intersubunit + α1 intrasubunit mutant; format: cell-based; set-up: expressed in transfected cells; host or cells: Xenopus laevis oocytes injected with cRNA; conditions: 3 μM 3α5αP, 1 mM GABA + 40 μM pentobarbital
Procedure: as §3

[6] = test system: α1(N408A/Y411F)β3 GABAAR; assay: Two-electrode voltage clamp in Xenopus laevis oocytes, N408A/Y411F mutant; format: cell-based; conditions: 3 μM 3β5αP, 1 mM GABA; α1(N408A/Y411F)β3 vs WT
Procedure: as §3

[7] = target: T3, α1(V227W)β3 GABAAR (UniProt P28472+P62813, V253W); assay: [3H]muscimol binding to HEK cell membranes, α1 intrasubunit site mutant V227W; set-up: species or system rat α1, human β3
T3 construct: expressed in transfected cells; host or cells: HEK293S GnTI- (ATCC CRL-3022), transient
Procedure: as §1, §2

[8] = α1(N408A/Y411F)β3, 3 nM [3H]muscimol

CC(=O)[C@H]1CC[C@H]2[C@@H]3CC[C@H]4C[C@H](O)CC[C@]4(C)[C@H]3CC[C@]12C [3α5αP, allopregnanolone]
EC50 [1]: 2.3 µM
Hill slope for modulation of [3H]muscimol binding [1, 8]: 0.87 ± 0.44
Emax (% of control) of [3H]muscimol binding [1, 8]: **146.0 ± 9.3 % of control
Bmax of [3H]muscimol binding isotherm in the presence of the modulator ([1]; α1(N408A/Y411F)β3): 0.93 ± 0.16 pmol/mg
Decrease of enhancement of [3H]muscimol binding by mutation ([1]; α1 intrasubunit site mutation vs WT): ~ 80%
Inhibition of steady-state current, effect of β3 intrasubunit site mutation [2]: markedly reduced
Enhancement of specific [3H]muscimol binding in α1(V256S)β3 compared with WT [3]: unaffected
Effect on steady-state current ([4]; 3 μM 3α5αP, 1 mM GABA + 40 μM pentobarbital, α1(Q242L)β3): small reduction
Effect on steady-state current [5]: significantly inhibited

CC(=O)[C@H]1CC[C@H]2[C@@H]3CC[C@H]4C[C@@H](O)CC[C@]4(C)[C@H]3CC[C@]12C [3β5αP, epi-allopregnanolone]
EC50 [1]: 0.61 ± 0.26 µM
Hill slope for modulation of [3H]muscimol binding [1, 8]: 2.25 ± 0.92
Emax (% of control) of [3H]muscimol binding [1, 8]: **124.3 ± 2.6 % of control
Prevention of 3β5αP-enhanced desensitization by mutation [6]: ~ 67%
Enhancement of specific [3H]muscimol binding in α1(V256S)β3 compared with WT [3]: absent
Effect of mutation on 3β5αP-enhanced desensitization ([4]; 3 μM 3β5αP, 1 mM GABA, α1(Q242L)β3 vs WT): without effect

C#CCCO[C@H]1CC[C@H]2[C@@H]3CC[C@H]4CC5(CC[C@]4(C)[C@H]3CC[C@]12C)N=N5 [KK148]
Hill slope for modulation of [3H]muscimol binding [1, 8]: 0.73 ± 0.23
Emax (% of control) of [3H]muscimol binding [1, 8]: **161.7 ± 3.5 % of control
EC50 ([1]; α1(N408A/Y411F)β3, 3 nM [3H]muscimol, read-out: EC50 for modulation of [3H]muscimol binding): 1.63 ± 0.53 µM
Bmax of [3H]muscimol binding isotherm in the presence of the modulator ([1]; α1(N408A/Y411F)β3): 0.85 ± 0.22 pmol/mg
Hill slope for modulation of [3H]muscimol binding ([7]; 3 nM [3H]muscimol): 0.76 ± 0.31
Emax (% of control) of [3H]muscimol binding ([7]; 3 nM [3H]muscimol, 100% means no effect): **209.2 ± 7.4 % of control
EC50 ([7]; 3 nM [3H]muscimol, read-out: EC50 for modulation of [3H]muscimol binding): 1.73 ± 0.68 µM

NCc1cc(=O)[nH]o1 [muscimol]
Bmax of [3H]muscimol binding isotherm ([1]; α1(N408A/Y411F)β3): 0.9 ± 0.1 (*P < 0.01 vs. WT) pmol/mg
Kd ([1]; α1(N408A/Y411F)β3, read-out: Kd of [3H]muscimol binding isotherm): 0.0607 ± 0.0075 µM
Bmax of [3H]muscimol binding isotherm [7]: 11.6 ± 0.4 (P > 0.99 vs. WT) pmol/mg
Kd ([7]; read-out: Kd of [3H]muscimol binding isotherm): 0.0541 ± 0.0058 µM
